Test results as given in patent US8921267B2, “Safening 6-(trisubstituted phenyl)-4-amino-2-pyridinecarboxylate herbicide injury on cereal crops” (Dow AgroSciences LLC, priority 2008, dated 2014).

Columns and labels:
[1] = system: wild pansy (Viola tricolor L; VIOTR); assay: Postemergence herbicidal activity, greenhouse, visual injury: wild pansy; assay type: in vivo; set-up: key: visual injury, 0–100%: 0 = no injury, 100 = complete kill
Protocol: (§1) Evaluation of Postemergence Herbicidal Safening in Cereal Crops
(§2) Seeds of the desired test plant species were planted in Sun Gro MetroMix® 306 planting mixture, which typically has a pH of 6.0 to 6.8 and an organic matter content of about 30 percent, in plastic pots with a surface area of 103.2 square centimeters (cm^2). When required to ensure good germination and healthy plants, a fungicide treatment and/or other chemical or physical treatment was applied. The plants were grown for 7-36 days (d) in a greenhouse with an approximate 14-hour (h) photoperiod which was maintained at about 18° C. during the day and 17° C. during the night. Nutrients and water were added on a regular basis and supplemental lighting was provided with overhead metal halide 1000-Watt lamps as necessary. The plants were employed for testing when they reached the second or third true leaf stage.
(§3) Weighed amounts of esters (methyl) or salts (TEA [triethylammonium], K [potassium]) of 4-amino-3-chloro-6-(4-chloro-2-fluoro-3-methoxyphenyl)pyridine-2-carboxylic acid (Compound 1) were dissolved in a volume of 97:3 volume/volume (v/v) acetone/dimethylsulfoxide (DMSO) to obtain stock solutions. […] The concentrated stock solutions were diluted with an aqueous mixture of 1.5% v/v of Agri-dex crop oil concentrate to provide the appropriate application rates. Compound requirements are based upon a 12 mL application volume at a rate of 187 liters per hectare (L/ha). Stocks solutions of the safeners were prepared following the same procedure. Spray solutions of the safeners and experimental compound mixtures were prepared by adding the stock solutions to the appropriate amount of dilution solution to form a 12 mL spray solution with active ingredients in two-way combinations. Formulated compounds were applied to the plant material with an overhead Mandel track sprayer equipped with 8002E nozzles calibrated to deliver 187 L/ha over an application area of 0.503 square meters (m^2) at a spray height of 18 inches (43 centimeters (cm)) above average plant canopy. Control plants were sprayed in the same manner with the solvent blank.
(§4) The treated plants and control plants were placed in a greenhouse as described above and watered by sub-irrigation to prevent wash-off of the test compounds. After 20-22 d, the condition of the test plants as compared with that of the control plants was determined visually and scored on a scale of 0 to 100 percent where 0 corresponds to no injury and 100 corresponds to complete kill.
(§5) Colby's equation was used to determine the herbicidal effects expected from the mixtures (Colby, S. R. Calculation of the synergistic and antagonistic response of herbicide combinations. Weeds 1967, 15, 20-22.).
(§6) The following equation was used to calculate the expected activity of mixtures containing two active ingredients, A and B: Expected=A+B−(A×B/100)
(§7) A=observed efficacy of active ingredient A at the same concentration as used in the mixture.
(§8) B=observed efficacy of active ingredient B at the same concentration as used in the mixture.

[2] = system: chickweed (Stellaria media L; STEME); assay: Postemergence herbicidal activity, greenhouse, visual injury: chickweed; assay type: in vivo; set-up: key: visual injury, 0–100%: 0 = no injury, 100 = complete kill
Protocol: as §1, §2, §3, §4, §5, §6, §7, §8

[3] = system: Russian thistle (Salsola iberica L; SASKR); assay: Postemergence herbicidal activity, greenhouse, visual injury: Russian thistle; assay type: in vivo; set-up: key: visual injury, 0–100%: 0 = no injury, 100 = complete kill
Protocol: as §1, §2, §3, §4, §5, §6, §7, §8

[4] = system: wild buckwheat (Polygonum convolvulus L; POLCO); assay: Postemergence herbicidal activity, greenhouse, visual injury: wild buckwheat; assay type: in vivo
Protocol: as §1, §2, §3, §4, §5, §6, §7, §8

[5] = system: cleavers (Galium aparine L; GALAP); assay: Postemergence herbicidal activity, greenhouse, visual injury: cleavers; assay type: in vivo; set-up: key: visual injury, 0–100%: 0 = no injury, 100 = complete kill
Protocol: as §1, §2, §3, §4, §5, §6, §7, §8

[6] = system: corn poppy (Papaver rhoeas L; PAPRH); assay: Postemergence herbicidal activity, greenhouse, visual injury: corn poppy; assay type: in vivo
Protocol: as §1, §2, §3, §4, §5, §6, §7, §8

[7] = system: bird's-eye speedwell (Veronica persica L; VERPE); assay: Postemergence herbicidal activity, greenhouse, visual injury: bird's-eye speedwell; assay type: in vivo; set-up: key: visual injury, 0–100%: 0 = no injury, 100 = complete kill
Protocol: as §1, §2, §3, §4, §5, §6, §7, §8

[8] = system: wheat (Triticum aestivum L; TRZAS); assay: Postemergence herbicidal safening, greenhouse, visual injury: wheat; assay type: in vivo
Protocol: as §1, §2, §3, §4, §5, §6, §7, §8

[9] = system: barley (Hordeum vulgare L; HORVS); assay: Postemergence herbicidal safening, greenhouse, visual injury: barley; assay type: in vivo
Protocol: as §1, §2, §3, §4, §5, §6, §7, §8

[10] = system: barley (HORVW); assay: Postemergence herbicidal safening, greenhouse, visual injury: barley (HORVW)
[11] = system: purple deadnettle (Lamium purpureum L; LAMPU); assay: Postemergence herbicidal activity, greenhouse, visual injury: purple deadnettle; assay type: in vivo; set-up: key: visual injury, 0–100%: 0 = no injury, 100 = complete kill
Protocol: as §1, §2, §3, §4, §5, §6, §7, §8

[12] = system: durum wheat (Triticum durum L; TRZDU); assay: Postemergence herbicidal safening, greenhouse, visual injury: durum wheat; assay type: in vivo
Protocol: as §1, §2, §3, §4, §5, §6, §7, §8

[13] = system: wheat (Triticum aestivum L; TRZAW); assay: Postemergence herbicidal safening, greenhouse, visual injury: wheat (TRZAW); assay type: in vivo
Protocol: as §1, §2, §3, §4, §5, §6, §7, §8

[14] = Compound 1 Methyl ester 35 g/ha alone

CC1(C)CN2C(=O)CCC2(C)N(C(=O)C(Cl)Cl)C1 (racemic) [Dicyclonon, (RS)-1-dichloroacetyl-3,3,8a-trimethylperhydropyrrolo[1,2]pyrimidin-6-one, reference compound]
0%: VIOTR Ob ([1]; applied alone at 17.5 g/ha) | VIOTR Ob ([1]; applied alone at 35 g/ha) | VIOTR Ob ([1]; applied alone at 70 g/ha) | VIOTR Ob ([1]; applied alone at 140 g/ha) | STEME Ob ([2]; applied alone at 17.5 g/ha) | STEME Ob ([2]; applied alone at 35 g/ha) | STEME Ob ([2]; applied alone at 70 g/ha) | STEME Ob ([2]; applied alone at 140 g/ha) | SASKR Ob ([3]; applied alone at 17.5 g/ha) | SASKR Ob ([3]; applied alone at 35 g/ha) | SASKR Ob ([3]; applied alone at 70 g/ha) | SASKR Ob ([3]; applied alone at 140 g/ha) | POLCO Ob ([4]; applied alone at 17.5 g/ha) | POLCO Ob ([4]; applied alone at 35 g/ha) | POLCO Ob ([4]; applied alone at 70 g/ha) | POLCO Ob ([4]; applied alone at 140 g/ha) | GALAP Ob ([5]; applied alone at 17.5 g/ha) | GALAP Ob ([5]; applied alone at 35 g/ha) | GALAP Ob ([5]; applied alone at 70 g/ha) | GALAP Ob ([5]; applied alone at 140 g/ha) | PAPRH Ob ([6]; applied alone at 17.5 g/ha) | PAPRH Ob ([6]; applied alone at 35 g/ha) | PAPRH Ob ([6]; applied alone at 70 g/ha) | PAPRH Ob ([6]; applied alone at 140 g/ha) | VERPE Ob ([7]; applied alone at 17.5 g/ha) | VERPE Ob ([7]; applied alone at 35 g/ha) | VERPE Ob ([7]; applied alone at 70 g/ha) | VERPE Ob ([7]; applied alone at 140 g/ha) | TRZAS Ob ([8]; applied alone at 17.5 g/ha) | TRZAS Ob ([8]; applied alone at 35 g/ha) | TRZAS Ob ([8]; applied alone at 70 g/ha) | TRZAS Ob ([8]; applied alone at 140 g/ha) | HORVS Ob ([9]; applied alone at 17.5 g/ha) | HORVS Ob ([9]; applied alone at 35 g/ha) | HORVS Ob ([9]; applied alone at 70 g/ha) | HORVS Ob ([9]; applied alone at 140 g/ha) | HORVW Ob (Observed values) ([10]; safener 4.4 g/ha alone) | HORVW Ob (Observed values) ([10]; safener 8.8 g/ha alone) | HORVW Ob (Observed values) ([10]; safener 17.5 g/ha alone) | HORVW Ob (Observed values) ([10]; safener 35 g/ha alone)
0: PAPRH Ob (Observed values) ([6]; safener 4.4 g/ha alone) | PAPRH Ob (Observed values) ([6]; safener 8.8 g/ha alone) | PAPRH Ob (Observed values) ([6]; safener 17.5 g/ha alone) | PAPRH Ob (Observed values) ([6]; safener 35 g/ha alone) | LAMPU Ob (Observed values) ([11]; safener 4.4 g/ha alone) | LAMPU Ob (Observed values) ([11]; safener 8.8 g/ha alone) | LAMPU Ob (Observed values) ([11]; safener 17.5 g/ha alone) | LAMPU Ob (Observed values) ([11]; safener 35 g/ha alone)

COC(=O)c1nc(-c2ccc(Cl)c(OC)c2F)cc(N)c1Cl [1 Methyl ester]
50%: HORVW Ob (Observed values) [10, 14]
33: HORVS Ob (Observed values) [9, 14]
42%: TRZDU Ob (Observed values) [12, 14]
97: PAPRH Ob (Observed values) [6, 14] | LAMPU Ob (Observed values) [11, 14]
35%: TRZAW Ob (Observed values) [13, 14]
50: TRZAS Ob (Observed values) [8, 14]

O=C(C(Cl)Cl)N1CCOC12CCCCC2 [AD67, 4-(dichloroacetyl)-1-oxa-4-azaspiro[4,5]decane, reference compound]
0%: VIOTR Ob ([1]; applied alone at 17.5 g/ha) | VIOTR Ob ([1]; applied alone at 35 g/ha) | VIOTR Ob ([1]; applied alone at 70 g/ha) | VIOTR Ob ([1]; applied alone at 140 g/ha) | STEME Ob ([2]; applied alone at 17.5 g/ha) | STEME Ob ([2]; applied alone at 35 g/ha) | STEME Ob ([2]; applied alone at 70 g/ha) | STEME Ob ([2]; applied alone at 140 g/ha) | SASKR Ob ([3]; applied alone at 17.5 g/ha) | SASKR Ob ([3]; applied alone at 35 g/ha) | SASKR Ob ([3]; applied alone at 70 g/ha) | SASKR Ob ([3]; applied alone at 140 g/ha) | POLCO Ob ([4]; applied alone at 17.5 g/ha) | POLCO Ob ([4]; applied alone at 35 g/ha) | POLCO Ob ([4]; applied alone at 70 g/ha) | POLCO Ob ([4]; applied alone at 140 g/ha) | GALAP Ob ([5]; applied alone at 17.5 g/ha) | GALAP Ob ([5]; applied alone at 35 g/ha) | GALAP Ob ([5]; applied alone at 70 g/ha) | GALAP Ob ([5]; applied alone at 140 g/ha) | PAPRH Ob ([6]; applied alone at 17.5 g/ha) | PAPRH Ob ([6]; applied alone at 35 g/ha) | PAPRH Ob ([6]; applied alone at 70 g/ha) | PAPRH Ob ([6]; applied alone at 140 g/ha) | VERPE Ob ([7]; applied alone at 17.5 g/ha) | VERPE Ob ([7]; applied alone at 35 g/ha) | VERPE Ob ([7]; applied alone at 70 g/ha) | VERPE Ob ([7]; applied alone at 140 g/ha) | TRZAS Ob ([8]; applied alone at 17.5 g/ha) | TRZAS Ob ([8]; applied alone at 35 g/ha) | TRZAS Ob ([8]; applied alone at 70 g/ha) | TRZAS Ob ([8]; applied alone at 140 g/ha) | HORVS Ob ([9]; applied alone at 17.5 g/ha) | HORVS Ob ([9]; applied alone at 35 g/ha) | HORVS Ob ([9]; applied alone at 70 g/ha) | HORVS Ob ([9]; applied alone at 140 g/ha)

O=C(C(Cl)Cl)N1CCOC12CCCCC2 [AD-67]
0: PAPRH Ob (Observed values) ([6]; safener 4.4 g/ha alone) | PAPRH Ob (Observed values) ([6]; safener 8.8 g/ha alone) | PAPRH Ob (Observed values) ([6]; safener 17.5 g/ha alone) | PAPRH Ob (Observed values) ([6]; safener 35 g/ha alone) | LAMPU Ob (Observed values) ([11]; safener 4.4 g/ha alone) | LAMPU Ob (Observed values) ([11]; safener 8.8 g/ha alone) | LAMPU Ob (Observed values) ([11]; safener 17.5 g/ha alone) | LAMPU Ob (Observed values) ([11]; safener 35 g/ha alone)
0%: TRZDU Ob (Observed values) ([12]; safener 4.4 g/ha alone) | TRZDU Ob (Observed values) ([12]; safener 8.8 g/ha alone) | TRZDU Ob (Observed values) ([12]; safener 17.5 g/ha alone) | TRZDU Ob (Observed values) ([12]; safener 35 g/ha alone) | HORVW Ob (Observed values) ([10]; safener 4.4 g/ha alone) | HORVW Ob (Observed values) ([10]; safener 8.8 g/ha alone) | HORVW Ob (Observed values) ([10]; safener 17.5 g/ha alone) | HORVW Ob (Observed values) ([10]; safener 35 g/ha alone) | TRZAW Ob (Observed values) ([13]; safener 4.4 g/ha alone) | TRZAW Ob (Observed values) ([13]; safener 8.8 g/ha alone) | TRZAW Ob (Observed values) ([13]; safener 17.5 g/ha alone) | TRZAW Ob (Observed values) ([13]; safener 35 g/ha alone)
